From patent US20240150365A1 (Hotspot Therapeutics, Inc., priority 2022, published 2024)
pIC50: −log10 of the molar value. Read-outs that look alike come from different tables or passages of the source.

What was measured:
MALT1 = target: T1, MALT1 (Homo sapiens, UniProt Q9UDY8); assay: MALT-1 Fluorogenic Peptide Cleavage Assay (MALT1 inhibition assay); format: biochemical; conditions: Avi-tagged FL MALT-1, Ac-LRSR-AMC peptide substrate, 30 min pre-incubation, 90 min reaction
T1 construct: Avi-tagged FL MALT-1 (Pharmaron, stored at −70° C.); Avi tag
T1 sequence (Q9UDY8 1-824): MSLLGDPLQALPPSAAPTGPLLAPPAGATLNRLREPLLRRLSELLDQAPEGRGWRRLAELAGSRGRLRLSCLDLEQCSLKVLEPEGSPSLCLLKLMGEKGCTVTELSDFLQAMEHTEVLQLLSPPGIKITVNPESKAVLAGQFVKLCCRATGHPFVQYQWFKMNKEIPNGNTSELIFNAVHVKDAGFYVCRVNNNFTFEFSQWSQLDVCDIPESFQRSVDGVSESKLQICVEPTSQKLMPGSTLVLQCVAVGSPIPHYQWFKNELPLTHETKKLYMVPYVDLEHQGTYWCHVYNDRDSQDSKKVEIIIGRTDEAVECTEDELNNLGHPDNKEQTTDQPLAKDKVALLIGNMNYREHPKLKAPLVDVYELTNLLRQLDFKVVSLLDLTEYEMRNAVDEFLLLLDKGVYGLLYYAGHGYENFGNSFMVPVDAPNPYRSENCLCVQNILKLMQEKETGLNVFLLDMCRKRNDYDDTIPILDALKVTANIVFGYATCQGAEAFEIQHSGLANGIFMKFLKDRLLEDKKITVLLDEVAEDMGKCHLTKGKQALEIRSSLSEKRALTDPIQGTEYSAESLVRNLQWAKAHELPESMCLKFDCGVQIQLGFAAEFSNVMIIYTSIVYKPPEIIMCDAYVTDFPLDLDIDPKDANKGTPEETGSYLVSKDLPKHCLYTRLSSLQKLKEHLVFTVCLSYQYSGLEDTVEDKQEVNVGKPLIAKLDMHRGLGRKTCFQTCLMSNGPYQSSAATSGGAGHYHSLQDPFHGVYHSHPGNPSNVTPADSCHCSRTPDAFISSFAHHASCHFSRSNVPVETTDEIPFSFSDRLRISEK
Summary of the method: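 IC50 from sigmoidal fits of % inhibition, with fluorescence (ex 342, em 441 nm) from AMC released from the quenched LRSR peptide after 90 min at room temperature. Full-length Avi-tagged MALT1 saw compound for 30 min first; final DMSO 2%.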

NF-kB = NF-kB reporter assay in Jurkat cells stimulated with aCD3/aCD28/PMA; format: cell-based; conditions: Homo sapiens, Jurkat, read-out: NF-kB Reporter Assay IC50
Summary of the method: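 Stimulation used final aCD3 5 μg/mL, aCD28 5 μg/mL and PMA 0.03 μg/mL for 4 hr at 37° C, after 1 hr compound pretreatment of 25,000 serum-starved Jurkat cells per well. One-Glo luminescence gave IC50 values.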

[1] = Jurkat cells, 1 hr compound incubation, aCD3/aCD28/PMA stimulation 4 hr, One-Glo readout

Row | SMILES | pIC50 (MALT1) | pIC50 (NF-kB; [1]) | pIC50 (NF-kB)
1 | COc1ccc2cnn(C)c2c1NS(=O)(=O)c1ccc(-n2cc(C(F)(F)F)cn2)nc1 [Example I-10, N-(6-Methoxy-1-Methylindazol-7-yl)-6-[4-(Trifluoromethyl) Pyrazol-1-yl]pyridine-3-Sulfonamide] | > 6.40 | > 6.40 | –
2 | COc1ccc2cnn(C)c2c1NS(=O)(=O)c1ccc(-n2ncc(C)c2C)nc1 [Example I-148, 6-(4,5-Dimethyl-1H-Pyrazol-1-yl)-N-(6-Methoxy-1-Methyl-1H-Indazol-7-yl)Pyridine-3-Sulfonamide] | > 6.40 | > 6.40 | –
3 | [2H]C([2H])([2H])Oc1ccc2cnn(C([2H])([2H])[2H])c2c1NS(=O)(=O)c1ccc(-n2cc(C(F)(F)F)cn2)nc1 [Example I-316, N-(6-(methoxy-d3)-1-(methyl-d3)-1H-indazol-7-yl)-6-(4-(trifluoromethyl)-1H-pyrazol-1-yl)pyridine-3-sulfonamide] | > 6.40 | > 6.40 | –
4 | Cn1c(=O)c2cccc(N)c2n1S(=O)(=O)c1ccc(-n2cc(C(F)(F)F)cn2)nc1 [Example I-179, 7-Amino-2-Methyl-1-((6-(4-(Trifluoromethyl)-1H-Pyrazol-1-yl)Pyridin-3-yl)Sulfonyl)-1,2-Dihydro-3H-Indazol-3-One] | < 5.60 | < 5.60 | –
5 | COc1ccc2[nH]cc(C)c2c1NS(=O)(=O)c1ccc(-n2cc(C(F)(F)F)cn2)nc1 [Example I-174, N-(5-methoxy-3-methyl-1H-indol-4-yl)-6-(4-(trifluoromethyl)-1H-pyrazol-1-yl)pyridine-3-sulfonamide] | > 6.40 | > 6.40 | –
6 | Cc1cn(-c2ccc(S(=O)(=O)Nc3cccc4cnn(C)c34)cn2)nc1C [Example I-58, 6-(3,4-Dimethylpyrazol-1-yl)-N-(1-Methylindazol-7-yl)Pyridine-3-Sulfonamide] | 5.60 to 6.00 | > 6.40 | –
7 | Cn1ncc2cccc(NS(=O)(=O)c3ccc(-c4cncc(F)c4)nc3)c21 [Example I-134, 5′-Fluoro-N-(1-Methyl-1H-Indazol-7-yl)-[2,3′-Bipyridine]-5-Sulfonamide] | < 5.60 | > 6.40 | –
8 | Cn1ncc2cccc(NS(=O)(=O)c3ccc(-n4cc(C(N)=O)cn4)nc3)c21 [Example I-105, 1-(5-(N-(1-Methyl-1H-Indazol-7-yl)Sulfamoyl)Pyridin-2-yl)-1H-Pyrazole-4-Carboxamide] | < 5.60 | < 5.60 | –
9 | CCc1ccc2cnn(C)c2c1NS(=O)(=O)c1cnc(-n2cc(C(F)(F)F)cn2)nc1 [Example I-8, N-(6-Ethyl-1-Methyl-1H-Indazol-7-yl)-2-(4-(Trifluoromethyl)-1H-Pyrazol-1-yl)Pyrimidine-5-Sulfonamide] | < 5.60 | < 5.60 | –
10 | CCc1ccc2cnn(C)c2c1N(C)S(=O)(=O)c1ccc(-n2cc(C(F)(F)F)cn2)nc1 [Example I-6] | > 6.40 | > 6.40 | –
11 | COc1ccc2cnn(C)c2c1N(C)S(=O)(=O)c1ccc(-n2cc(C(F)(F)F)cn2)nc1 [Example I-162, N-(6-Methoxy-1-Methyl-1H-Indazol-7-yl)-N-Methyl-6-(4-(Trifluoromethyl)-1H-Pyrazol-1-yl)Pyridine-3-Sulfonamide] | > 6.40 | > 6.40 | –
12 | Cc1cnn(-c2ccc(S(=O)(=O)Nc3cccc4cnn(C)c34)cn2)n1 [Example I-52, N-(1-Methyl-1H-Indazol-7-yl)-6-(4-Methyl-2H-1,2,3-Triazol-2-yl)Pyridine-3-Sulfonamide] | < 5.60 | 5.60 to 6.00 | –
13 | Cn1ncc2cccc(NS(=O)(=O)c3ccc(-c4ccncc4F)nc3)c21 [Example I-120, 3′-Fluoro-N-(1-Methylindazol-7-yl)-[2,4′-Bipyridine]-5-Sulfonamide] | < 5.60 | > 6.40 | –
14 | Cc1ccc2cnn(C)c2c1NS(=O)(=O)c1ccc(-n2cc(C(F)(F)F)cn2)nc1 [Example I-31, N-(1,6-Dimethyl-1H-Indazol-7-yl)-6-(4-(Trifluoromethyl)-1H-Pyrazol-1-yl)Pyridine-3-Sulfonamide] | > 6.40 | > 6.40 | –
15 | COc1ncc2cnn(C)c2c1N(C)S(=O)(=O)c1ccc(-n2ccc(C(F)(F)F)n2)nc1 [Example I-195, N-(6-Methoxy-1-Methyl-1H-Pyrazolo[4,3-C]Pyridin-7-yl)-N-Methyl-6-(3-(Trifluoromethyl)-1H-Pyrazol-1-yl)Pyridine-3-Sulfonamide] | > 6.40 | > 6.40 | –
16 | Cn1ncc2cccc(NS(=O)(=O)c3ccc(-c4c[nH]nc4C(F)(F)F)nc3)c21 [Example I-85, N-(1-Methyl-1H-Indazol-7-yl)-6-(3-(Trifluoromethyl)-1H-Pyrazol-4-yl)Pyridine-3-Sulfonamide] | < 5.60 | > 6.40 | –
17 | Cc1[nH]ncc1-c1ccc(S(=O)(=O)Nc2cccc3cnn(C)c23)cn1 [Example I-155, N-(1-Methyl-1H-Indazol-7-yl)-6-(5-Methyl-1H-Pyrazol-4-yl)Pyridine-3-Sulfonamide] | < 5.60 | > 6.40 | –
18 | Cn1cc(-c2ccc(S(=O)(=O)Nc3cccc4cnn(C)c34)cn2)nc1C(F)(F)F [Example I-228, N-(1-Methyl-1H-Indazol-7-yl)-6-(1-Methyl-2-(Trifluoromethyl)-1H-Imidazol-4-yl)Pyridine-3-Sulfonamide] | 5.60 to 6.00 | > 6.40 | –
19 | COc1ncc(-c2ccc(S(=O)(=O)Nc3cccc4cnn(C)c34)cn2)s1 [Example I-243, 6-(2-methoxythiazol-5-yl)-N-(1-methyl-1H-indazol-7-yl)pyridine-3-sulfonamide] | < 5.60 | – | > 6.40
20 | [2H]C([2H])([2H])Oc1ccc2cnn(C)c2c1NS(=O)(=O)c1ccc(-n2cc(C(F)(F)F)cn2)nc1 [Example I-68, N-(6-(Methoxy-D3)-1-Methyl-1H-Indazol-7-yl)-6-(4-(Trifluoromethyl)-1H-Pyrazol-1-yl)Pyridine-3-Sulfonamide] | > 6.40 | > 6.40 | –
21 | COc1ncc2cnn(C)c2c1NS(=O)(=O)c1ccc(-c2cnn3c2COCCC3)nc1 [Example I-311] | < 5.60 | < 5.60 | –
22 | COCCn1ncc2cccc(NS(=O)(=O)c3ccc(-n4ccc(C5CC5)n4)nc3)c21 [Example I-231, 6-(3-Cyclopropyl-1H-Pyrazol-1-yl)-N-(1-(2-Methoxyethyl)-1H-Indazol-7-yl)Pyridine-3-Sulfonamide] | < 5.60 | < 5.60 | –
23 | Cn1ncc2cccc(NS(=O)(=O)c3ccc(-n4ccc(C5CC5)n4)nc3)c21 [Example I-207, 6-(3-Cyclopropyl-1H-Pyrazol-1-yl)-N-(1-Methyl-1H-Indazol-7-yl)Pyridine-3-Sulfonamide] | 5.60 to 6.00 | > 6.40 | –
24 | Cc1cnn(-c2ccc(S(=O)(=O)Nc3cccc4cnn(C)c34)cn2)c1C [Example I-57, 6-(4,5-Dimethylpyrazol-1-yl)-N-(1-Methylindazol-7-yl)Pyridine-3-Sulfonamide] | < 5.60 | > 6.40 | –
25 | Cn1ncc2cccc(NS(=O)(=O)c3ccc(-c4cccnc4)nc3)c21 [Example I-109, N-(1-Methyl-1H-Indazol-7-yl)-[2,3′-Bipyridine]-5-Sulfonamide] | < 5.60 | > 6.40 | –
26 | CN[C@@H]1CCCC[C@H]1N(C)c1ccc(S(=O)(=O)Nc2cccc3cnn(C)c23)cn1 [Example I-248, 6-{methyl[(1R,2R)-2-(methylamino)cyclohexyl]amino}-N-(1-methylindazol-7-yl)pyridine-3-sulfonamide] | < 5.60 | < 5.60 | –
27 | COc1ccc2cnn(C)c2c1NS(=O)(=O)c1ccc(-n2nc(C)c(C)c2C)nc1 [Example I-140, N-(6-Methoxy-1-Methyl-1H-Indazol-7-yl)-6-(3,4,5-Trimethyl-1H-Pyrazol-1-yl)Pyridine-3-Sulfonamide] | > 6.40 | > 6.40 | –
28 | Cn1ncc2cccc(NS(=O)(=O)c3ccc(-c4ccncc4)nc3)c21 [Example I-116, N-(1-METHYL-1H-INDAZOL-7-YL)-[2,4′-BIPYRIDINE]-5-SULFONAMIDE] | < 5.60 | 6.00 to 6.40 | –
29 | Cn1ncc2cccc(NS(=O)(=O)c3ccc(-c4cncc(C#N)c4)nc3)c21 [Example I-130, 5′-cyano-N-(1-methylindazol-7-yl)-[2,3′-bipyridine]-5-sulfonamide] | < 5.60 | 5.60 to 6.00 | –
30 | Cc1n[nH]c2cccc(NS(=O)(=O)c3ccc(-c4cnn5c4CCC5)nc3)c12 [Example I-288] | < 5.60 | > 6.40 | –
